Laboratory results taken from ChEMBL document CHEMBL1201862, “PubChem BioAssay data set” (2004).
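Cells were grown in 96-well plates and exposed to each compound for 48 hours at five concentrations; endpoints were interpolated linearly between bracketing concentrations, or set to the highest concentration if not reached. GI50 marks 50% less growth.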 Active and inactive are the calls of the source. No stated cut-off is given here; in the data, active = GI50 up to about 1.1 µM and inactive = higher. Peptide text beside a SMILES is read from it. * marks the point of attachment. Cbz = O=C(OCc1ccccc1)*; OBn = c1ccc(CO*)cc1

Assays:
Assay in all cases: inhibition of tumour cell growth, NCI panel, 48 h
SK-MEL-2 = system: SK-MEL-2
OVCAR-8 = system: OVCAR-8
CAKI-1 = system: CAKI-1
CCRF-CEM = system: CCRF-CEM
U-251 = system: U-251
HOP-92 = system: HOP-92
HCT-15 = system: HCT-15
MDA-N = system: MDA-N
Hs-578T = system: Hs-578T
BT-549 = system: BT-549
MOLT-4 = system: MOLT-4
SF-295 = system: SF-295
NCI-H460 = system: NCI-H460
NCI/ADR-RES = system: NCI/ADR-RES
OVCAR-3 = system: OVCAR-3
K562 = system: K562
SF-539 = system: SF-539
SK-OV-3 = system: SK-OV-3
NCI-H522 = system: NCI-H522
MDA-MB-435 = system: MDA-MB-435
HL-60 = system: HL-60
OVCAR-5 = system: OVCAR-5
IGROV-1 = system: IGROV-1
Malme-3M = system: Malme-3M
HOP-62 = system: HOP-62
NCI-H226 = system: NCI-H226
UO-31 = system: UO-31
MCF7 = system: MCF7
SF-268 = system: SF-268
SNB-19 = system: SNB-19
UACC-257 = system: UACC-257
SK-MEL-5 = system: SK-MEL-5
A549 = system: A549
786-0 = system: 786-0
HCT-116 = system: HCT-116
HT-29 = system: HT-29
T47D = system: T47D
RXF 393 = system: RXF 393
UACC-62 = system: UACC-62
MDA-MB-231 = system: MDA-MB-231
RPMI-8226 = system: RPMI-8226
SW-620 = system: SW-620
ACHN = system: ACHN
NCI-H23 = system: NCI-H23
PC-3 = system: PC-3
SN12C = system: SN12C
M14 = system: M14
SK-MEL-28 = system: SK-MEL-28
KM12 = system: KM12
COLO 205 = system: COLO 205
TK-10 = system: TK-10
LOX IMVI = system: LOX IMVI
HCC 2998 = system: HCC 2998
SNB-75 = system: SNB-75
OVCAR-4 = system: OVCAR-4
EKVX = system: EKVX
DU-145 = system: DU-145
A498 = system: A498
SR = system: SR

Measured: GI50

COc1ccc(/C=C/c2cnnc3ccccc23)cc1OC
> 10 µM: HCT-15
active: UO-31 0.0374 µM
inactive: SK-MEL-2 > 10 µM | OVCAR-8 > 10 µM | CAKI-1 > 10 µM | CCRF-CEM > 10 µM | U-251 > 10 µM | HOP-92 3.7 µM | MDA-N > 10 µM | Hs-578T > 10 µM | BT-549 > 10 µM | MOLT-4 > 10 µM | SF-295 > 10 µM | NCI-H460 > 10 µM | NCI/ADR-RES > 10 µM | OVCAR-3 > 10 µM | K562 > 10 µM | SF-539 > 10 µM | SK-OV-3 > 10 µM | NCI-H522 > 10 µM | MDA-MB-435 > 10 µM | HL-60 > 10 µM | OVCAR-5 > 10 µM | IGROV-1 > 10 µM | Malme-3M > 10 µM | HOP-62 > 10 µM | NCI-H226 > 10 µM | MCF7 > 10 µM | SF-268 > 10 µM | SNB-19 > 10 µM | UACC-257 > 10 µM | SK-MEL-5 > 10 µM | A549 > 10 µM | 786-0 > 10 µM | HCT-116 > 10 µM | HT-29 > 10 µM | T47D > 10 µM | RXF 393 > 10 µM | UACC-62 > 10 µM | MDA-MB-231 > 10 µM | RPMI-8226 > 10 µM | SW-620 > 10 µM | ACHN > 10 µM | NCI-H23 > 10 µM | PC-3 > 10 µM | SN12C > 10 µM | M14 > 10 µM | SK-MEL-28 > 10 µM | KM12 > 10 µM | COLO 205 > 10 µM | TK-10 > 10 µM | LOX IMVI > 10 µM | HCC 2998 > 10 µM | SNB-75 5.46 µM | OVCAR-4 > 10 µM | EKVX > 10 µM | DU-145 > 10 µM | A498 > 10 µM

O=C(O)CSC1=NC(=O)C2(NN1)c1ccccc1-c1ccccc12
> 10 µM: HCT-15
inactive: OVCAR-8 > 10 µM | CAKI-1 > 10 µM | CCRF-CEM > 10 µM | HOP-92 > 10 µM | MDA-N > 10 µM | Hs-578T > 10 µM | BT-549 > 10 µM | MOLT-4 > 10 µM | SF-295 > 10 µM | NCI-H460 > 10 µM | NCI/ADR-RES > 10 µM | K562 > 10 µM | SF-539 > 10 µM | SK-OV-3 > 10 µM | NCI-H522 > 10 µM | MDA-MB-435 > 10 µM | HL-60 > 10 µM | IGROV-1 > 10 µM | Malme-3M > 10 µM | HOP-62 > 10 µM | NCI-H226 > 10 µM | UO-31 > 10 µM | MCF7 > 10 µM | SF-268 > 10 µM | SNB-19 > 10 µM | UACC-257 > 10 µM | SK-MEL-5 > 10 µM | A549 > 10 µM | 786-0 > 10 µM | HCT-116 > 10 µM | HT-29 > 10 µM | T47D > 10 µM | RXF 393 > 10 µM | UACC-62 > 10 µM | MDA-MB-231 > 10 µM | RPMI-8226 > 10 µM | SW-620 > 10 µM | ACHN > 10 µM | NCI-H23 > 10 µM | PC-3 > 10 µM | SN12C > 10 µM | M14 > 10 µM | SK-MEL-28 > 10 µM | KM12 > 10 µM | COLO 205 > 10 µM | TK-10 > 10 µM | LOX IMVI > 10 µM | HCC 2998 > 10 µM | SNB-75 > 10 µM | SR > 10 µM | OVCAR-4 > 10 µM | EKVX > 10 µM | DU-145 > 10 µM

COc1ccc(-c2c(C#N)c(NC(=S)NC(=O)c3ccccc3)nc3c2CCCC3)cc1OC
> 100 µM: HCT-15
inactive: OVCAR-8 48.5 µM | CAKI-1 49.5 µM | CCRF-CEM 50.7 µM | U-251 71.1 µM | MDA-N 65.3 µM | Hs-578T 33.3 µM | BT-549 > 100 µM | MOLT-4 27 µM | SF-295 56.6 µM | NCI-H460 35 µM | NCI/ADR-RES 56.4 µM | OVCAR-3 99.5 µM | K562 29.6 µM | SF-539 30.2 µM | SK-OV-3 > 100 µM | MDA-MB-435 66.1 µM | HL-60 34.1 µM | OVCAR-5 98.2 µM | IGROV-1 62.1 µM | Malme-3M 29.8 µM | HOP-62 44.9 µM | UO-31 35.2 µM | MCF7 46.3 µM | SF-268 41.8 µM | SNB-19 68.2 µM | UACC-257 46.6 µM | SK-MEL-5 34.6 µM | A549 52.4 µM | HCT-116 > 100 µM | HT-29 58.6 µM | T47D 14.9 µM | RXF 393 18.3 µM | UACC-62 44.5 µM | MDA-MB-231 34.7 µM | RPMI-8226 42 µM | SW-620 75.9 µM | ACHN 72.3 µM | NCI-H23 67.9 µM | PC-3 46.2 µM | SN12C 49 µM | M14 75.7 µM | SK-MEL-28 61.4 µM | KM12 > 100 µM | COLO 205 > 100 µM | TK-10 45.4 µM | LOX IMVI 49.7 µM | SNB-75 22.3 µM | SR 59.2 µM | OVCAR-4 45.4 µM | EKVX 24.5 µM | DU-145 > 100 µM

N#Cc1ccccc1-c1nc2c3c(c(N)ccc3n1)C(=O)c1ccccc1-2
inactive: SK-MEL-2 47 µM | OVCAR-8 33.5 µM | CAKI-1 8.3 µM | CCRF-CEM 18.9 µM | U-251 34.6 µM | HOP-92 > 100 µM | MDA-N > 100 µM | Hs-578T 33.2 µM | BT-549 > 100 µM | MOLT-4 32.3 µM | SF-295 45.1 µM | NCI-H460 > 100 µM | NCI/ADR-RES > 100 µM | OVCAR-3 45.1 µM | K562 43.5 µM | SF-539 37.3 µM | SK-OV-3 24.4 µM | NCI-H522 32 µM | MDA-MB-435 76.2 µM | HL-60 20 µM | OVCAR-5 34.8 µM | IGROV-1 8.38 µM | Malme-3M > 100 µM | HOP-62 18.1 µM | NCI-H226 35.2 µM | UO-31 8.85 µM | MCF7 17.6 µM | SF-268 51.5 µM | SNB-19 55.1 µM | UACC-257 > 100 µM | SK-MEL-5 32.1 µM | A549 71.6 µM | 786-0 33 µM | HCT-116 29.7 µM | HT-29 43.4 µM | T47D 6.7 µM | RXF 393 18 µM | UACC-62 64.6 µM | MDA-MB-231 10.3 µM | RPMI-8226 14.3 µM | SW-620 31 µM | ACHN 22.2 µM | NCI-H23 88.7 µM | PC-3 23.7 µM | SN12C 60 µM | M14 23.1 µM | SK-MEL-28 24.8 µM | KM12 11.5 µM | COLO 205 26.4 µM | TK-10 21.4 µM | LOX IMVI 27.9 µM | HCC 2998 > 100 µM | SNB-75 50.2 µM | OVCAR-4 71 µM | EKVX 30.3 µM | DU-145 64.1 µM | A498 43.6 µM
31.8 µM: HCT-15

COC(=O)CNC(=O)C(C)NC(=O)C(CC(=O)OCc1ccccc1)NC(=O)OCc1ccccc1 (stereo not drawn) (Cbz-Asp(OBn)-Ala-Gly-OMe; configuration not given here)
inactive: SK-MEL-2 65.5 µM | OVCAR-8 81.8 µM | CAKI-1 79.8 µM | U-251 47 µM | HOP-92 66.5 µM | MDA-N 53.6 µM | Hs-578T 43.9 µM | BT-549 37.8 µM | MOLT-4 13.7 µM | SF-295 33.3 µM | NCI-H460 50.7 µM | NCI/ADR-RES 67.1 µM | OVCAR-3 75 µM | K562 27.5 µM | SF-539 70.8 µM | SK-OV-3 > 100 µM | NCI-H522 34.3 µM | MDA-MB-435 37.1 µM | OVCAR-5 39.4 µM | IGROV-1 > 100 µM | Malme-3M 45.2 µM | HOP-62 > 100 µM | NCI-H226 36.1 µM | UO-31 19.1 µM | MCF7 55.7 µM | SNB-19 57.3 µM | UACC-257 32.4 µM | SK-MEL-5 17 µM | A549 39.5 µM | 786-0 > 100 µM | HCT-116 30.6 µM | HT-29 65.5 µM | T47D 21.6 µM | RXF 393 13.8 µM | UACC-62 58.3 µM | MDA-MB-231 6.64 µM | RPMI-8226 39 µM | SW-620 35.7 µM | NCI-H23 36.6 µM | PC-3 24 µM | SN12C 91.6 µM | M14 > 100 µM | SK-MEL-28 80.2 µM | KM12 73.6 µM | COLO 205 38.4 µM | TK-10 20.5 µM | HCC 2998 32.9 µM | SNB-75 72.1 µM | SR 35.5 µM | DU-145 93.5 µM
53.7 µM: HCT-15
